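Exposure lasted 48 hours, with cells grown in 96-well plates and compounds tested at five concentrations. At the GI50, growth is halved.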 Activity calls are given as the source filed them. Cut-off read from the data, not from the text of the source: active = GI50 up to about 1.1 µM and inactive = higher.

Ten compounds from ChEMBL document CHEMBL1201862, “PubChem BioAssay data set” (2004) can be followed below.

Among the test systems are CCRF-CEM; RPMI-8226; K562; SN12C; UACC-257; U-251; SW-620; HCC 2998; OVCAR-5; UACC-62; A498; SF-268; RXF 393; TK-10; Hs-578T; LOX IMVI; CAKI-1; NCI-H226; HL-60; SF-295.
Test in all cases: NCI tumour cell line growth inhibition, 48 h

Consider `NCCCN(CCCCN(CCCN)Cc1ccc2ccccc2c1)Cc1ccc2ccccc2c1`, for which the GI50 is 27 µM (inactive) with CCRF-CEM; 2.74 µM (inactive) with RPMI-8226; 3.51 µM (inactive) in the test with K562; 1.57 µM (inactive) with SN12C; 2.02 µM (inactive) in the test on UACC-257; 1.8 µM (inactive) in the test with U-251. The GI50 in the test on SW-620 was 2.43 µM (inactive); with HCC 2998, 2.86 µM (inactive); in the test on OVCAR-5, 1.84 µM (inactive); in the test on UACC-62 it was 2.08 µM (inactive); in the test with A498, 2.1 µM (inactive); in the test on SF-268, 1.29 µM (inactive). Besides, the GI50 in the test on RXF 393 is 1.95 µM (inactive); in the test with TK-10 it was 2.21 µM (inactive); with Hs-578T, 1.63 µM (inactive); in the test with LOX IMVI it was 2.1 µM (inactive); with CAKI-1 it was 1.65 µM (inactive); in the test on NCI-H226 it was 1.8 µM (inactive). For the same compound, the GI50 in the test on HL-60 is 3.76 µM (inactive); in the test on SF-295, 2.12 µM (inactive).

As to `CCCCC(=O)Oc1ccc2c(C)cc(=O)oc2c1`, the GI50 with CCRF-CEM, in the test with RPMI-8226, in the test on K562, with SN12C, in the test with UACC-257 and in the test with U-251 was > 100 µM (inactive) throughout. Besides, the GI50 with SW-620 is > 100 µM (inactive); with HCC 2998 it was 88.9 µM (inactive); with OVCAR-5, > 100 µM (inactive); with UACC-62, > 100 µM (inactive); in the test on A498, > 100 µM (inactive); with SF-268, > 100 µM (inactive). For the same compound, the GI50 with RXF 393, in the test with TK-10, in the test on Hs-578T, in the test with LOX IMVI, with CAKI-1 and in the test on NCI-H226 was > 100 µM (inactive) each time. The GI50 in the test on HL-60 and in the test on SF-295 was > 100 µM (inactive) each time.

In the case of `O=C(O)c1cc2c(s1)C(=O)c1sccc1C2=O`, the GI50 in the test on CCRF-CEM was 6.84 µM (inactive); with RPMI-8226, 12.7 µM (inactive); in the test with K562, 4.03 µM (inactive); in the test with SN12C, 2.73 µM (inactive); in the test with UACC-257, 3.51 µM (inactive); in the test on U-251, 5.02 µM (inactive). Besides, the GI50 is 2.31 µM (inactive) in the test with SW-620; 18.7 µM (inactive) in the test on HCC 2998; 9.91 µM (inactive) in the test on OVCAR-5; 2.08 µM (inactive) with UACC-62; 17.5 µM (inactive) in the test with A498; 5.24 µM (inactive) with SF-268. In addition, the GI50 with RXF 393 was 6.87 µM (inactive); with TK-10, 20.1 µM (inactive); with Hs-578T, 2.49 µM (inactive); in the test with LOX IMVI, 1.32 µM (inactive); with CAKI-1, 12.4 µM (inactive); in the test with NCI-H226, 19.6 µM (inactive). The GI50 is 4.18 µM (inactive) in the test on HL-60 and 2.26 µM (inactive) in the test on SF-295.

Turning to `CC[C@@H]1CC[C@@H]2[C@H](CC[C@]3(C)[C@@H](O)CC[C@@H]23)[C@H]1CO`, the GI50 with CCRF-CEM is > 100 µM (inactive); with RPMI-8226, 67 µM (inactive); in the test on K562, 51.1 µM (inactive); with SN12C it was > 100 µM (inactive); with UACC-257, > 100 µM (inactive); in the test with U-251, > 100 µM (inactive). In addition, the GI50 was > 100 µM (inactive) with SW-620; > 100 µM (inactive) in the test on HCC 2998; > 100 µM (inactive) in the test with OVCAR-5; 79.8 µM (inactive) in the test with UACC-62; > 100 µM (inactive) with A498; > 100 µM (inactive) in the test on SF-268. The GI50 with RXF 393, in the test on TK-10, in the test on Hs-578T, in the test with LOX IMVI, in the test on CAKI-1 and in the test with NCI-H226 was > 100 µM (inactive) each time. Further, the GI50 in the test on HL-60 is 23.3 µM (inactive); in the test with SF-295, 77.3 µM (inactive).

With `COc1cccc(C2c3cc4c(cc3OC(NNS(=O)(=O)c3ccc(C)cc3)C2C)OCO4)c1O` (stereo not given), the GI50 in the test with CCRF-CEM was 10 µM (inactive); in the test on RPMI-8226 it was 6.31 µM (inactive); in the test on K562, 10.2 µM (inactive); in the test with SN12C it was 37 µM (inactive); in the test with UACC-257, 19.7 µM (inactive); with U-251 it was 22.3 µM (inactive). Besides, the GI50 in the test on SW-620 was 23 µM (inactive); in the test on HCC 2998 it was 31.1 µM (inactive); in the test with OVCAR-5, 52.4 µM (inactive); with UACC-62 it was 22 µM (inactive); in the test with A498 it was 25.5 µM (inactive); in the test on SF-268, 41.9 µM (inactive). Besides, the GI50 is 21.3 µM (inactive) with RXF 393; 31.8 µM (inactive) with TK-10; 12.8 µM (inactive) in the test with Hs-578T; 26.1 µM (inactive) in the test on LOX IMVI; 24.2 µM (inactive) in the test on CAKI-1; 27.9 µM (inactive) with NCI-H226. The GI50 in the test with HL-60 is 18 µM (inactive); in the test with SF-295, 20.8 µM (inactive).

On to `COc1cccc(-c2cc(O)c3cc(N4CCN(C)CC4)ccc3n2)c1`, for which the GI50 in the test on CCRF-CEM is 0.986 µM (active); in the test with RPMI-8226, 3.35 µM (inactive); in the test with K562, 0.628 µM (active); in the test on SN12C, 2.92 µM (inactive); in the test on UACC-257 it was 0.706 µM (active); with U-251, 0.785 µM (active). Moreover, the GI50 is 0.522 µM (active) with SW-620; 2.01 µM (inactive) in the test with HCC 2998; 5.14 µM (inactive) in the test on OVCAR-5; 1.28 µM (inactive) in the test on UACC-62; 1.06 µM (active) with A498; 1.91 µM (inactive) in the test on SF-268. Also, the GI50 with RXF 393 is 1.18 µM (inactive); in the test on TK-10, 9.64 µM (inactive); in the test on Hs-578T, 0.774 µM (active); with LOX IMVI, 1.73 µM (inactive); in the test on CAKI-1 it was 2.66 µM (inactive); with NCI-H226, 1.71 µM (inactive). For the same compound, the GI50 was 0.537 µM (active) in the test with HL-60 and 1.71 µM (inactive) with SF-295.

Take `N#Cc1c(NCCc2ccc(F)cc2)c2ccccc2n2c1nc1ccccc12`: the GI50 was > 100 µM (inactive) in the test on CCRF-CEM; 46.8 µM (inactive) in the test on RPMI-8226; > 100 µM (inactive) with K562; 15.1 µM (inactive) in the test on SN12C; 40.4 µM (inactive) in the test with UACC-257; 11.3 µM (inactive) in the test with U-251. Besides, the GI50 with SW-620 was 75 µM (inactive); with HCC 2998, 40.3 µM (inactive); with OVCAR-5 it was 41.6 µM (inactive); with UACC-62 it was 7.6 µM (inactive); in the test with A498, 21 µM (inactive); in the test with SF-268, 7.41 µM (inactive). Also, the GI50 in the test with RXF 393 is 10.7 µM (inactive); in the test on TK-10, 12.5 µM (inactive); with Hs-578T it was 4.33 µM (inactive); with LOX IMVI, 14.1 µM (inactive); in the test on CAKI-1, 9.84 µM (inactive); in the test on NCI-H226 it was 16.7 µM (inactive). The GI50 in the test on HL-60 is > 100 µM (inactive); in the test with SF-295, 10.7 µM (inactive).

With `CC1=NN(C(=O)CSc2nc3ccc(I)cc3c(=O)n2Cc2ccccc2)C(=O)C1`, the GI50 with CCRF-CEM is 27.9 µM (inactive); in the test with RPMI-8226, 35 µM (inactive); in the test with K562, 23.8 µM (inactive); in the test on SN12C, 29.3 µM (inactive); with UACC-257 it was 34 µM (inactive); in the test on U-251, 25.4 µM (inactive). Moreover, the GI50 in the test with SW-620 is 46.5 µM (inactive); in the test on HCC 2998, 39.1 µM (inactive); with OVCAR-5, 65.2 µM (inactive); with UACC-62 it was 26.4 µM (inactive); in the test on A498, 22.4 µM (inactive); in the test with SF-268, 21.4 µM (inactive). The GI50 in the test with RXF 393 was 25.9 µM (inactive); in the test on TK-10 it was 47.6 µM (inactive); in the test with Hs-578T it was 7.89 µM (inactive); in the test on LOX IMVI, 16.4 µM (inactive); in the test with CAKI-1, 31.8 µM (inactive); with NCI-H226 it was 43.9 µM (inactive). The GI50 with HL-60 is 33.3 µM (inactive); in the test on SF-295, 27.3 µM (inactive).

Turning to `COC(=O)CC1(O)C(C=C(C)C)C(C(=O)OC)C(=O)C(C(=O)OC)C1C(=O)OC` (stereo not given), the GI50 in the test with CCRF-CEM, with RPMI-8226, in the test with K562, with SN12C, with UACC-257 and in the test with U-251 was > 100 µM (inactive) throughout. For the same compound, the GI50 in the test on SW-620, in the test with HCC 2998, with OVCAR-5, in the test on UACC-62, in the test with A498 and in the test on SF-268 was > 100 µM (inactive) throughout. Also, the GI50 in the test with RXF 393, with TK-10, with Hs-578T, in the test with LOX IMVI, in the test on CAKI-1 and in the test with NCI-H226 was > 100 µM (inactive) in each case. In addition, the GI50 in the test with HL-60 and in the test with SF-295 was > 100 µM (inactive) throughout.

For the compound `COc1ccc(/C=N/NS(=O)(=O)c2ccc(/C=C3\NC(=O)N(C)C3=O)cc2)cc1`, the GI50 in the test with CCRF-CEM is 78.3 µM (inactive); in the test on RPMI-8226, > 100 µM (inactive); in the test on K562 it was > 100 µM (inactive); with SN12C, > 100 µM (inactive); in the test on UACC-257 it was 57.8 µM (inactive); in the test with U-251, > 100 µM (inactive). Moreover, the GI50 in the test on SW-620 was > 100 µM (inactive); in the test with HCC 2998, > 100 µM (inactive); in the test with OVCAR-5, > 100 µM (inactive); in the test on UACC-62 it was 98.9 µM (inactive); in the test with A498, 70.6 µM (inactive); in the test on SF-268, 37.8 µM (inactive). Also, the GI50 was 38.6 µM (inactive) in the test with RXF 393; 49.3 µM (inactive) in the test on TK-10; 30.3 µM (inactive) in the test on Hs-578T; > 100 µM (inactive) in the test with LOX IMVI; > 100 µM (inactive) in the test with CAKI-1; > 100 µM (inactive) in the test on NCI-H226. Further, the figures for the GI50 in the test on HL-60 and in the test with SF-295 were 67 µM (inactive) and 55 µM (inactive), respectively.
